Holding throughout (assay type): cell-based
One assay deals with T1, SST2 (Homo sapiens, UniProt P30874).
T1 construct: host or cells: PathHunter CHO-K1 SST2 cells
Kind of assay: PathHunter CHO-K1 SST2 Internalization Assay. The following applies: PathHunter CHO-K1 SST2 cells; 90 min at 37 C; luminescence; read-out: Internalization EC50. An outline of the steps:
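Four-parameter nonlinear fits of background-corrected luminescence (duplicate means) gave IC50s. NDCs were serially diluted 1:3 over 11 points from a 10 uM final top concentration and incubated 90 min at 37 C with human SST2 CHO-K1 cells plated 48 h earlier at 2500/well. Beta-Glo read-out developed 60 min at RT.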

For assay [1], the system named is NCI-H524 human small cell lung cancer cells. Briefly: H524 assay: inhibition of cell proliferation (CellTiter Glo). The following applies: 2 h treatment, washout, additional 70 h incubation. The method in brief:
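Proliferation was measured by CellTiter Glo 70 h after a washout that followed a 2 h pulse of NDC. Doses were an 11-point, two-fold dilution series from 1 uM. IC50 was fitted with a four-parameter model to luminescence-based % inhibition relative to control cells.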

For assay [2], the target named is T2, human somatostatin receptor subtype 2 (Homo sapiens, UniProt P30874).
T2 construct: expressed in transfected cells
Kind of assay: Functional assay for SSTR2 agonists (HTRF cAMP). The following applies: CHO-K1 cells stably expressing human SST2; NKH477-stimulated cAMP; 20 min at 37 C; read-out: hSST2 cAMP Avg EC50. The method in brief: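 Agonist activity read as fall in intracellular cAMP: HTRF 665/620 nm ratio regressed to a cAMP standard curve, EC50 fitted. Stable human SSTR2 CHO-K1 cells exposed 20 min at 37 °C to compound, final concentrations typically 0-10,000 nM.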
Background: In TR-FRET formats the signal depends on donor and acceptor labels being close together.

T2 sequence (P30874 whole entry): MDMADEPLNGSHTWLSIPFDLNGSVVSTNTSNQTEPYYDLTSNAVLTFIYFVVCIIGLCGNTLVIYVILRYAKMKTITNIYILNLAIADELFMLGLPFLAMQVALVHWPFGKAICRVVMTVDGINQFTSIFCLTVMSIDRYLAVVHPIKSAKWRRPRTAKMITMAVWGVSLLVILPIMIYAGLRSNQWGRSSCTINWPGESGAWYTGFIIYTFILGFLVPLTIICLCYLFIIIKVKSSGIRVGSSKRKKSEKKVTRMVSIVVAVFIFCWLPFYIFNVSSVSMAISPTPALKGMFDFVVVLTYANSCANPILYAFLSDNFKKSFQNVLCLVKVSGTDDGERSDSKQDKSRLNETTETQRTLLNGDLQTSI
T1 sequence (P30874 whole entry): as above

In general, EC50 refers to the concentration giving half of the maximal effect. Regarding `CC[C@H](C)[C@@H]([C@@H](CC(=O)N1CCC[C@H]1[C@H](OC)[C@@H](C)C(=O)N[C@H](C)[C@@H](O)c1ccccc1)OC)N(C)C(=O)[C@@H](NC(=O)[C@H](C(C)C)N(C)C(=O)OCc1ccc(NC(=O)[C@H](C)NC(=O)[C@@H](NC(=O)C[C@@H](N)C(=O)NCCOCCC(=O)NCCNc2ncc(-c3cc(C)cc(F)c3)c(N3CCC(NC)CC3)c2-c2nc3ccc(Cl)cc3[nH]2)C(C)C)c(O[C@@H]2O[C@H](C(=O)O)[C@@H](O)[C@H](O)[C@H]2O)c1)C(C)C` [Compound 120], the 50% effective concentration (EC50) at SST2 turned out to be 5.2 nM; in assay [1], 20 nM; in assay [2], 0.088 nM.
For `CC[C@H](C)[C@@H]([C@@H](CC(=O)N1CCC[C@H]1[C@H](OC)[C@@H](C)C(=O)N[C@H](C)[C@@H](O)c1ccccc1)OC)N(C)C(=O)[C@@H](NC(=O)[C@H](C(C)C)N(C)C(=O)OCc1ccc(NC(=O)[C@H](CCCNC(N)=O)NC(=O)[C@@H](NC(=O)CCOCCOCCOCCOCCC(=O)NCCNc2ncc(-c3cc(C)cc(F)c3)c(N3CCC(N)CC3)c2-c2nc3ccc(Cl)cc3[nH]2)C(C)C)cc1C(=O)N1CC(N)C1)C(C)C` [Compound 59] the same measures were 2 nM, 260 nM and 0.25 nM.
With `CC[C@H](C)[C@@H]([C@@H](CC(=O)N1CCC[C@H]1[C@H](OC)[C@@H](C)C(=O)N[C@H](C)[C@@H](O)c1ccccc1)OC)N(C)C(=O)[C@H](C)NC(=O)[C@H](C(C)C)N(C)C(=O)OCc1ccc(NC(=O)[C@H](C)NC(=O)[C@@H](NC(=O)CCOCCNC(=O)CCNc2ncc(-c3cc(C)cc(F)c3)c(N3CCC(N)CC3)c2-c2nc3ccc(Cl)cc3[nH]2)C(C)C)c(O[C@@H]2O[C@H](C(=O)O)[C@@H](O)[C@H](O)[C@H]2O)c1` [Compound 194], the values for the concentration giving a half-maximal response (EC50) (on SST2; in assay [1]; in assay [2]) were 7.6 nM, 21 nM and 0.16 nM, respectively.
In the case of `CC[C@H](C)[C@@H]([C@@H](CC(=O)N1CCC[C@H]1[C@H](OC)[C@@H](C)C(=O)N[C@H](C)[C@@H](O)c1ccccc1)OC)N(C)C(=O)[C@@H](NC(=O)[C@H](C(C)C)N(C)C(=O)OCc1ccc(NC(=O)[C@H](C)NC(=O)[C@@H](NC(=O)CCOCCC(=O)NCCNc2ncc(-c3cc(C)cc(F)c3)c(N3CC[C@H]4NCCO[C@@H]4C3)c2-c2nc3c(F)cc(F)cc3[nH]2)C(C)C)c(O[C@@H]2O[C@H](C(=O)O)[C@@H](O)[C@H](O)[C@H]2O)c1)C(C)C` [Compound 114], the values for the 50% effective concentration (EC50) (at SST2; in assay [1]; in assay [2]) were 850 nM, 4600 nM and 85 nM, respectively.
In the case of `CC[C@H](C)[C@@H]([C@@H](CC(=O)N1CCC[C@H]1[C@H](OC)[C@@H](C)C(=O)N[C@H](C)[C@@H](O)c1ccccc1)OC)N(C)C(=O)[C@@H](NC(=O)[C@H](C(C)C)N(C)C(=O)OCc1ccc(NC(=O)[C@H](CCCNC(N)=O)NC(=O)[C@@H](NC(=O)CCOCCC(=O)NCCNc2ncc(-c3cc(C)cc(F)c3)c(N3CCC(N)CC3)c2-c2nc3ccc(Cl)cc3[nH]2)C(C)C)c(O[C@@H]2O[C@H](C(=O)N(C)CC(=O)O)[C@@H](O)[C@H](O)[C@H]2O)c1)C(C)C` [Compound 216], the half-maximal effective concentration (EC50) at SST2 was 3 nM; in assay [1], 8.6 nM; in assay [2], 0.076 nM.
As for `CC[C@H](C)[C@@H]([C@@H](CC(=O)N1CCC[C@H]1[C@H](OC)[C@@H](C)C(=O)N[C@H](C)[C@@H](O)c1ccccc1)OC)N(C)C(=O)[C@@H](NC(=O)[C@H](C(C)C)N(C)C(=O)OCc1ccc(NC(=O)[C@H](C)NC(=O)[C@@H](NC(=O)CCOCCOCCOCCOCCC(=O)NCCNc2ncc(-c3cc(C)cc(F)c3)c(N3CCC(N)CC3)c2-c2nc3ccc(Cl)cc3[nH]2)C(C)C)c(OCC(=O)O)c1)C(C)C` [Compound 14], the figures for the EC50 (on SST2; in assay [1]; in assay [2]) were 4.6 nM, 19 nM and 0.037 nM, respectively.
`CC[C@H](C)[C@@H]([C@@H](CC(=O)N1CCC[C@H]1[C@H](OC)[C@@H](C)C(=O)N[C@H](C)[C@@H](O)c1ccccc1)OC)N(C)C(=O)[C@@H](NC(=O)[C@H](C(C)C)N(C)C(=O)OCc1ccc(NC(=O)[C@@H](CCCNC(N)=O)NC(=O)[C@@H](NC(=O)CCOCCC(=O)NCCNc2ncc(-c3cc(C)cc(F)c3)c(N3CCC(N)CC3)c2-c2nc3ccc(Cl)cc3[nH]2)C(C)C)c(O[C@H]2[C@H](O)[C@@H](O)[C@H](O)[C@@H](C(=O)O)[C@H]2O)c1)C(C)C` [Compound 241]: the EC50 on SST2 is 4.6 nM; in assay [1] it was 2900 nM; in assay [2] it was 0.19 nM.
`CC[C@H](C)[C@@H]([C@@H](CC(=O)N1CCC[C@H]1[C@H](OC)[C@@H](C)C(=O)N[C@H](C)[C@@H](O)c1ccccc1)OC)N(C)C(=O)[C@@H](NC(=O)[C@H](C(C)C)N(C)C(=O)OCc1ccc(NC(=O)[C@H](CCCNC(N)=O)NC(=O)[C@@H](NC(=O)c2cc(NCCCCCC(=O)NCCNc3ncc(-c4cc(C)cc(F)c4)c(N4CCC(N)CC4)c3-c3nc4ccc(Cl)cc4[nH]3)cc(C(=O)NCC(=O)O)c2)C(C)C)cc1)C(C)C` [Compound 154]: the EC50 stood at 7.7 nM at SST2, 39 nM in assay [1] and 1.6 nM in assay [2].
For `CC[C@H](C)[C@@H]([C@@H](CC(=O)N1CCC[C@H]1[C@H](OC)[C@@H](C)C(=O)N[C@H](C)[C@@H](O)c1ccccc1)OC)N(C)C(=O)[C@@H](NC(=O)[C@H](C(C)C)N(C)C(=O)OCc1ccc(NC(=O)[C@H](CCCNC(N)=O)NC(=O)[C@@H](NC(=O)c2cc(NCCOCCC(=O)NCCNc3ncc(-c4cc(C)cc(F)c4)c(N4CCC(N)CC4)c3-c3nc4cc(F)cc(OC)c4[nH]3)cc(C(=O)NCC(=O)O)c2)C(C)C)cc1)C(C)C` [Compound 166], in that order: 4.5 nM, 18 nM and 0.29 nM.
As to `CC[C@H](C)[C@@H]([C@@H](CC(=O)N1CCC[C@H]1[C@H](OC)[C@@H](C)C(=O)N[C@H](C)[C@@H](O)c1ccccc1)OC)N(C)C(=O)[C@@H](NC(=O)[C@H](C(C)C)N(C)C(=O)OCc1ccc(NC(=O)[C@H](CCCNC(N)=O)NC(=O)[C@@H](NC(=O)[C@@H](CS(=O)(=O)O)NC(=O)CCOCCC(=O)NCCNc2ncc(-c3cc(C)cc(F)c3)c(N3CCC(N)CC3)c2-c2nc3ccc(Cl)cc3[nH]2)C(C)C)cc1C(=O)N1CC(N)C1)C(C)C` [Compound 76], the EC50 is 4.7 nM on SST2, 12 nM in assay [1] and 0.075 nM in assay [2].
Turning to `CC[C@H](C)[C@@H]([C@@H](CC(=O)N1CCC[C@H]1[C@H](OC)[C@@H](C)C(=O)N[C@H](C)[C@@H](O)c1ccccc1)OC)N(C)C(=O)[C@@H](NC(=O)[C@H](C(C)C)N(C)C(=O)OCc1ccc(NC(=O)[C@H](CCCNC(N)=O)NC(=O)[C@@H](NC(=O)C[C@@H](N)C(=O)NCCOCCC(=O)NCCNc2ncc(-c3cc(C)cc(F)c3)c(N3CCC(N)CC3)c2-c2nc3ccc(Cl)cc3[nH]2)C(C)C)c(O[C@@H]2O[C@H](C(=O)O)[C@@H](O)[C@H](O)[C@H]2O)c1)C(C)C` [Compound 92], the EC50 worked out at 2.5 nM on SST2, 680 nM in assay [1] and 0.2 nM in assay [2].
As for `CC[C@H](C)[C@@H]([C@@H](CC(=O)N1CCC[C@H]1[C@H](OC)[C@@H](C)C(=O)N[C@H](C)[C@@H](O)c1ccccc1)OC)N(C)C(=O)[C@@H](NC(=O)[C@H](C(C)C)N(C)C(=O)OCc1ccc(NC(=O)[C@H](CCCNC(N)=O)NC(=O)[C@@H](NC(=O)[C@H](NC(=O)CCOCCC(=O)NCCNc2ncc(-c3cc(C)cc(F)c3)c(N3CCC(N)CC3)c2-c2nc3ccc(Cl)cc3[nH]2)c2cnn(C)c2)C(C)C)c(OCC(=O)O)c1)C(C)C` [Compound 204], the EC50 came out at 9.2 nM on SST2, 30 nM in assay [1] and 0.14 nM in assay [2].
In the case of `CC[C@H](C)[C@@H]([C@@H](CC(=O)N1CCC[C@H]1[C@H](OC)[C@@H](C)C(=O)N[C@H](C)[C@@H](O)c1ccccc1)OC)N(C)C(=O)[C@@H](NC(=O)[C@H](C(C)C)N(C)C(=O)OCc1ccc(NC(=O)[C@H](CCCNC(N)=O)NC(=O)[C@@H](NC(=O)CCOCCC(=O)NCCNc2ncc(-c3cc(C)cc(F)c3)c(N3CCC(N)CC3)c2-c2nc3ccc(Cl)cc3[nH]2)C(C)C)c(OCC(=O)O)c1)C(C)C` [Compound 18], the EC50 was 6.4 nM on SST2, 7.8 nM in assay [1] and 0.097 nM in assay [2].
As for `CC[C@H](C)[C@@H]([C@@H](CC(=O)N1CCC[C@H]1[C@H](OC)[C@@H](C)C(=O)N[C@H](C)[C@@H](O)c1ccccc1)OC)N(C)C(=O)[C@@H](NC(=O)[C@H](C(C)C)N(C)C(=O)OCc1ccc(NC(=O)[C@H](CCCNC(N)=O)NC(=O)[C@@H](NC(=O)C2(NC(=O)CCCC(=O)N(C)CC(=O)NCCNc3ncc(-c4cc(C)cc(F)c4)c(N4CCC(N)CC4)c3-c3nc4ccc(Cl)cc4[nH]3)CCN(CC(=O)O)CC2)C(C)C)cc1)C(C)C` [Compound 173], the half-maximal effective concentration (EC50) on SST2 turned out to be 19 nM; in assay [1] it was 52 nM; in assay [2], 0.24 nM.
For `CC[C@H](C)[C@@H]([C@@H](CC(=O)N1CCC[C@H]1[C@H](OC)[C@@H](C)C(=O)N[C@H](C)[C@@H](O)c1ccccc1)OC)N(C)C(=O)[C@@H](NC(=O)[C@H](C(C)C)N(C)C(=O)OCc1ccc(NC(=O)[C@H](CCCNC(N)=O)NC(=O)[C@@H](NC(=O)c2cc(NC(=O)CCOCCC(=O)NCCNc3ncc(-c4cc(C)cc(F)c4)c(N4CCC(N)CC4)c3-c3nc4ccc(Cl)cc4[nH]3)cc(C(=O)NCC(=O)O)c2)C(C)C)cc1)C(C)C` [Compound 149], the half-maximal effective concentration (EC50) on SST2 turned out to be 12 nM; in assay [1], 100 nM; in assay [2], 0.033 nM.

The record behind these values is patent publication US20260007758A1, “SO[…]-2 RECEPTOR (SST2R) NON-PEPTIDE DRUG CONJUGATES AND USES THEREOF” (Crinetics Pharmaceuticals, Inc., priority 2024, published 2026).
